Data as given in article PMC7932537, “Quantitative profiling of protease specificity” (PLoS Computational Biology, 2021).

Key:
MMP-9 = experiment: Substrate phage display with NGS: relative probability (RP) of P3-P1' tetramer clusters; assay type: biochemical, human; conditions: for MMP9 relative probability (RP): MMP9 tetramers from unique substrates, unrounded values; for relative_probability: tetramer clusters unique to the MMP-9 selectome, MMP-9 RP
MMP-2 = experiment: as above; assay type: biochemical, human; conditions: for relative probability (RP) of matching tetramer: P3-P1' tetramer matching the MS detected MMP2 cleavage sequence, RP_above_4.5; for corresponding MMP2 relative probability (RP): MMP9 tetramers from unique substrates, RP of same tetramer for MMP2
[1] = RP of the P3-P1' tetramer in MMP-9 substrate phage display/NGS, tetramer annotation of MMP-9 cleavage sites (octamers P4-P4') collected in MEROPS database
[2] = rank of the P3-P1' tetramer by RP in MMP-9 substrate phage display/NGS, tetramer annotation of MMP-9 cleavage sites (octamers P4-P4') collected in MEROPS database
[3] = MMP2, RP of matching P3-P1' tetramer, common set of MMP2-9 selectome, RP above KL threshold
[4] = MMP9, RP of matching P3-P1' tetramer, common set of MMP2-9 selectome
[5] = RP of matching tetramer, common MMP2-9 selectome
[6] = MMP9, RP of the P3-P1' tetramer matching the MS detected cleavage, RP above 4.7, substrate phage display with NGS
[7] = RP of matching tetramer, common MMP2-9 selectome, RP above KL threshold
[8] = RP of the P3-P1' tetramer, MMP2 substrate phage display/NGS, tetramers of physiologic MEROPS substrates common to MMP2 and MMP9
[9] = RP of the P3-P1' tetramer, MMP9 substrate phage display/NGS, tetramers of physiologic MEROPS substrates common to MMP2 and MMP9
[10] = RP of the P3-P1' tetramer cluster contained in the hexamer, 200 nM MMP-2, 2 h, 37°C, two rounds of selection
[11] = MMP9, RP of the P3-P1' tetramer contained in the hexamer substrate (substrate phage display, NGS)
[12] = tetramer annotation of MMP-9 cleavage sites in physiologic substrates from MEROPS
[13] = RP according to MMP2, P3-P1' tetramer of unique physiologic MMP2 substrates from MEROPS
[14] = RP according to MMP9, P3-P1' tetramer of unique physiologic MMP9 substrates from MEROPS
[15] = tetramer projected onto MMP-9 cleavage sites determined by Prudova et al. (2010)
[16] = tetramer probability in MMP9 set / naive library, 200 nM protease, 2 h, 37°C

AAAA
relative probability (RP) (MMP-9; [1]): 0.34
Relative probability (RP) rank (MMP-9; [2]): 31285

AAAI
relative probability (RP) (acc.to MMP2) (MMP-2; [3]): 25.49
relative probability (RP) of matching tetramer (MMP-2): 25.49
relative probability (RP) (acc.to MMP9) (MMP-9; [4]): 15.73

AAAK
relative probability (RP) (MMP-9; [1]): 0
Relative probability (RP) rank (MMP-9; [2]): 91823

AAAL
relative probability (RP) (acc.to MMP2) (MMP-2; [3]): 31.4
relative probability (RP) of matching tetramer (MMP-2): 31.4
relative probability (RP) (acc.to MMP2) (MMP-2; [5]): 31.4
relative probability (RP) (MMP-2; tetramer annotation of MMP-2 cleavage sites in all substrates from MEROPS): 31.4
relative probability (RP) (acc.to MMP9) (MMP-9; [4]): 32.12
relative probability (RP) (MMP-9; [6]): 32.12
relative probability (RP) (acc.to MMP9) (MMP-9; [7]): 32.12

AAAM
relative probability (RP) (acc.to MMP2) (MMP-2; [3]): 23.42
relative probability (RP) of matching tetramer (MMP-2): 23.42
relative probability (RP) (acc.to MMP9) (MMP-9; [4]): 23.49

AAAY
relative probability (RP) (MMP-9; [1]): 22.04
Relative probability (RP) rank (MMP-9; [2]): 2070

AAGV
relative probability (RP) (acc.to MMP2) (MMP-2; [8]): 0.76
relative probability (RP) (acc.to MMP9) (MMP-9; [9]): 0.05

AHNLSS
relative probability (RP) (MMP-2; [10]): 23.7113
relative probability (RP) (MMP-9; [11]): 29.6602

AIHI
relative probability (RP) (acc.to MMP2) (MMP-2; [8]): 4.71
relative probability (RP) (acc.to MMP9) (MMP-9; [9]): 5.64

AINI
relative probability (RP) (acc.to MMP2) (MMP-2; [3]): 8.5
relative probability (RP) of matching tetramer (MMP-2): 8.5
relative probability (RP) (acc.to MMP2) (MMP-2; [5]): 8.5
relative probability (RP) (acc.to MMP9) (MMP-9; [4]): 14.08
relative probability (RP) (MMP-9; [6]): 14.08
relative probability (RP) (acc.to MMP9) (MMP-9; [7]): 14.08

AKAL
relative probability (RP) (acc.to MMP2) (MMP-2; [3]): 22.96
relative probability (RP) of matching tetramer (MMP-2): 22.96
relative probability (RP) (acc.to MMP2) (MMP-2; [5]): 22.96
relative probability (RP) (acc.to MMP9) (MMP-9; [4]): 37.29
relative probability (RP) (MMP-9; [6]): 37.29
relative probability (RP) (acc.to MMP9) (MMP-9; [7]): 37.29

AKAQ
corresponding MMP2 relative probability (RP) (MMP-2): 5.884
MMP9 relative probability (RP) (MMP-9): 0.8414

AKNL
relative probability (RP) (acc.to MMP2) (MMP-2; [3]): 16.7
relative probability (RP) of matching tetramer (MMP-2): 16.7
relative probability (RP) (acc.to MMP2) (MMP-2; [5]): 16.7
relative probability (RP) (acc.to MMP9) (MMP-9; [4]): 32.82
relative probability (RP) (MMP-9; [6]): 32.82
relative probability (RP) (acc.to MMP9) (MMP-9; [7]): 32.82

AKRF
relative probability (RP) (MMP-9; [12]): 0.43

ALYL
corresponding MMP2 relative probability (RP) (MMP-2): 5.662
MMP9 relative probability (RP) (MMP-9): 1.807

AMFL
corresponding MMP2 relative probability (RP) (MMP-2): 15.1166
MMP9 relative probability (RP) (MMP-9): 1.089

AMPM
relative probability (RP) (acc.to MMP2) (MMP-2; [3]): 8.51
relative probability (RP) of matching tetramer (MMP-2): 8.51
relative probability (RP) (acc.to MMP2) (MMP-2; [5]): 8.51
relative probability (RP) (acc.to MMP9) (MMP-9; [4]): 26.95
relative probability (RP) (MMP-9; [6]): 26.95
relative probability (RP) (acc.to MMP9) (MMP-9; [7]): 26.95

ANPV
relative probability (RP) (acc.to MMP2) (MMP-2; [8]): 0.04
relative probability (RP) (acc.to MMP9) (MMP-9; [9]): 0.33

APALWI
relative probability (RP) (MMP-2; [10]): 24.3606
relative probability (RP) (MMP-9; [11]): 27.3829

APGF
relative probability (RP) (acc.to MMP2) (MMP-2; [8]): 0.64
relative probability (RP) (acc.to MMP9) (MMP-9; [9]): 0.56

APGL
MMP2 relative probability (RP) (MMP-2; MMP2 tetramers from unique substrates, unrounded values): 7.849
Relative probability (RP) rank (MMP-2; [13]): 5899
relative probability (RP) (MMP-2; [13]): 7.85
relative probability (RP) (acc.to MMP2) (MMP-2; [8]): 7.85
corresponding MMP9 relative probability (RP) (MMP-9; MMP2 tetramers from unique substrates, RP of same tetramer for MMP9): 3.776
Relative probability (RP) rank (MMP-9; [14]): 6833
relative probability (RP) (MMP-9; [14]): 3.78
relative probability (RP) (acc.to MMP9) (MMP-9; [9]): 3.78

APGN
relative probability (RP) (acc.to MMP2) (MMP-2; [8]): 3.62
relative probability (RP) (acc.to MMP9) (MMP-9; [9]): 2.38

ARAY
relative probability (RP) (acc.to MMP2) (MMP-2; [3]): 20.14
relative probability (RP) of matching tetramer (MMP-2): 20.14
relative probability (RP) (acc.to MMP2) (MMP-2; [5]): 20.14
relative probability (RP) (acc.to MMP9) (MMP-9; [4]): 36.14
relative probability (RP) (MMP-9; [6]): 36.14
relative probability (RP) (acc.to MMP9) (MMP-9; [7]): 36.14

FFPF
relative probability (RP) (MMP-9; [12]): 0.33

GVMQ
Relative probability (RP) rank (MMP-9; [14]): 91467
relative probability (RP) (MMP-9; [14]): 0

IIGL
Relative probability (RP) rank (MMP-9; [14]): 15777
relative probability (RP) (MMP-9; [14]): 0.98

IRYV
relative probability (RP) (MMP-9; [6]): 10.4

ITPL [P3-P1' tetramer cluster]
relative probability (RP) (MMP-9; [15]): 0.92

IYYI
relative probability (RP) (MMP-9; [6]): 14.54

PAPL [P3-P1' tetramer cluster]
relative probability (RP) (MMP-9; [15]): 46.24

PDHL
relative probability (RP) (MMP-9; [6]): 13.06

PFAS
relative probability (RP) (MMP-9; [6]): 24.05

PFAV [P3-P1' tetramer cluster]
relative probability (RP) (MMP-9; [15]): 43.58

PFKI
relative probability (RP) (MMP-9; [6]): 34.84

PFPL [P3-P1' tetramer cluster]
relative probability (RP) (MMP-9; [15]): 49.54

PFSV [P3-P1' tetramer cluster]
relative probability (RP) (MMP-9; [15]): 31.92

PKAS [P3-P1' tetramer cluster]
relative probability (RP) (MMP-9; [15]): 25.84

PKGE [P3-P1' tetramer cluster]
relative probability (RP) (MMP-9; [15]): 0

PMAA
relative probability (RP) (MMP-9; [6]): 16.94

PMPL [P3-P1' tetramer cluster]
relative probability (RP) (MMP-9; [16]): 51.2509

PMWM [P3-P1' tetramer cluster]
relative probability (RP) (MMP-9; [16]): 52.3808

PRGI [P3-P1' tetramer cluster]
relative probability (RP) (MMP-9; [15]): 47.2

PRLV
relative probability (RP) (MMP-9; [6]): 7.12

PSGI [P3-P1' tetramer cluster]
relative probability (RP) (MMP-9; [15]): 45.03

PVGI [P3-P1' tetramer cluster]
relative probability (RP) (MMP-9; [15]): 46.04

PVGV [P3-P1' tetramer cluster]
relative probability (RP) (MMP-9; [15]): 34.33

PVPQ [P3-P1' tetramer cluster]
relative probability (RP) (MMP-9; [15]): 29.84

PWAQ [P3-P1' tetramer cluster]
relative_probability (MMP-9): 41.83

PWMI [P3-P1' tetramer cluster]
relative_probability (MMP-9): 41.91

PWMM [P3-P1' tetramer cluster]
relative_probability (MMP-9): 46.92

PWPH
relative probability (RP) (MMP-9; [6]): 15.08

PWWI [P3-P1' tetramer cluster]
relative_probability (MMP-9): 43.44

PWWM [P3-P1' tetramer cluster]
relative_probability (MMP-9): 45.99

PYAI [P3-P1' tetramer cluster]
relative probability (RP) (MMP-9; [16]): 51.7522

TITG
Relative probability (RP) rank (MMP-9; [14]): 47886
relative probability (RP) (MMP-9; [14]): 0.16

TMNM
relative probability (RP) (MMP-9; [6]): 6.67

VGSL [P3-P1' tetramer cluster]
relative probability (RP) (MMP-9; [15]): 7.47
